Assay [1] relates to Aspergillus flavus. Put plainly: (§1) Compound was tested in vitro for antifungal activity against Aspergillus flavus. In kind it is functional, asperigillus.
For another assay, the system named is Aspergillus fumigatus. Put plainly: Compound was tested in vitro for antifungal activity against Aspergillus fumigatus. In kind it is functional.
The test system of the next assay is Kluyveromyces marxianus. The experiment in a line: Compound was tested in vitro for antifungal activity against Candida kefyr. In kind it is functional.
Another assay has as its system Candida albicans. The experiment in a line: Compound was tested in vitro for antifungal activity against Candida albicans. The class given is functional.
The next assay concerns Cryptococcus neoformans. Put plainly: Compound was tested in vitro for antifungal activity against Cryptococcus neoformans. In kind it is functional.
In assay [2] the test system is Trichophyton benhamiae. The experiment in a line: (§2) Compound was tested in vitro for antifungal activity against Trichophyton mentagrophytes. In kind it is functional, trichophyton mentagro.
Assay [3] relates to Aspergillus flavus. The assay is described as §1. In kind it is functional.
The subject of assay [4] is Trichophyton benhamiae. Described as §2. In kind it is functional, Arthroderma benhamiae.

Converted amounts (≈) assume the structure as drawn.

For `Clc1ccc(CN2CCc3ccccc3C2Cn2cncn2)cc1` (stereo not drawn), the MIC with Aspergillus flavus [1] was 25 µg/mL (≈ 73.8 µM); against Aspergillus fumigatus, 4 µg/mL (≈ 11.8 µM); in the assay on Kluyveromyces marxianus it was 0.39 µg/mL (≈ 1.15 µM); against Candida albicans, > 50 µg/mL; with Cryptococcus neoformans, 6.25 µg/mL (≈ 18.4 µM); in the assay with Trichophyton benhamiae [2], 0.25 µg/mL (≈ 0.738 µM).
As to `c1ccc(CN2CCc3ccccc3C2Cn2ccnc2)cc1` (stereo not drawn), the MIC was 25 µg/mL (≈ 82.4 µM) in the assay on Aspergillus flavus [1]; 25 µg/mL (≈ 82.4 µM) in the assay with Aspergillus fumigatus; > 50 µg/mL against Kluyveromyces marxianus; > 50 µg/mL against Candida albicans; > 50 µg/mL with Cryptococcus neoformans; 0.19 µg/mL (≈ 0.626 µM) with Trichophyton benhamiae [2].
As for `Clc1ccc(CN2CCc3ccccc3C2Cn2ccnc2)c(Cl)c1` (stereo not drawn), the MIC in the assay on Aspergillus flavus [1] was 0.78 µg/mL (≈ 2.1 µM); in the assay on Aspergillus fumigatus it was 0.39 µg/mL (≈ 1.05 µM); in the assay on Kluyveromyces marxianus, 0.19 µg/mL (≈ 0.51 µM); in the assay with Candida albicans it was > 50 µg/mL; in the assay with Cryptococcus neoformans it was 1.56 µg/mL (≈ 4.19 µM); against Trichophyton benhamiae [2], 6.25 µg/mL (≈ 16.8 µM).
As for `Fc1ccc(CN2CCc3ccccc3C2Cn2cncn2)cc1` (stereo not drawn), the MIC against Aspergillus flavus [1] is > 50 µg/mL; with Aspergillus fumigatus it was > 50 µg/mL; against Kluyveromyces marxianus, > 50 µg/mL; against Candida albicans it was > 50 µg/mL; against Cryptococcus neoformans, > 50 µg/mL; against Trichophyton benhamiae [2] it was 1 µg/mL (≈ 3.1 µM).
Regarding `Fc1ccc(CN2CCc3ccccc3C2Cn2ccnc2)c(F)c1` (stereo not drawn), the MIC was 0.78 µg/mL (≈ 2.3 µM) in the assay on Aspergillus flavus [1]; 6.25 µg/mL (≈ 18.4 µM) against Aspergillus fumigatus; > 50 µg/mL in the assay on Kluyveromyces marxianus; > 50 µg/mL with Candida albicans; > 50 µg/mL with Cryptococcus neoformans; 0.39 µg/mL (≈ 1.15 µM) against Trichophyton benhamiae [2].
For `Fc1ccc(CN2CCc3ccccc3C2Cn2cncn2)c(F)c1` (stereo not drawn), the MIC in the assay with Aspergillus flavus [1] was > 50 µg/mL; against Aspergillus fumigatus, > 50 µg/mL; in the assay on Kluyveromyces marxianus, 0.39 µg/mL (≈ 1.15 µM); against Candida albicans, > 50 µg/mL; in the assay with Cryptococcus neoformans, > 50 µg/mL; against Trichophyton benhamiae [2], 2 µg/mL (≈ 5.88 µM).
On to `Clc1ccc(CN2CCc3ccccc3C2Cn2ccnc2)cc1` (stereo not drawn), for which the MIC against Aspergillus flavus [1] is 0.19 µg/mL (≈ 0.562 µM); in the assay on Aspergillus fumigatus it was 3.12 µg/mL (≈ 9.23 µM); in the assay on Kluyveromyces marxianus, 0.1 µg/mL (≈ 0.296 µM); with Candida albicans it was > 50 µg/mL; in the assay with Cryptococcus neoformans it was 0.39 µg/mL (≈ 1.15 µM); against Trichophyton benhamiae [2] it was 0.19 µg/mL (≈ 0.562 µM).
On to `Clc1ccc(CN2CCc3ccccc3C2Cn2cncn2)c(Cl)c1` (stereo not drawn), for which the MIC against Aspergillus flavus [1] is > 50 µg/mL; against Aspergillus fumigatus it was > 50 µg/mL; in the assay on Kluyveromyces marxianus it was > 50 µg/mL; in the assay with Candida albicans, > 50 µg/mL; against Cryptococcus neoformans, 12.5 µg/mL (≈ 33.5 µM); against Trichophyton benhamiae [2] it was 4 µg/mL (≈ 10.7 µM).
As for `Fc1ccc(CN2CCc3ccccc3C2Cn2ccnc2)cc1` (stereo not drawn), the MIC in the assay on Aspergillus flavus [1] is 6.25 µg/mL (≈ 19.4 µM); against Aspergillus fumigatus, 12.5 µg/mL (≈ 38.9 µM); in the assay with Kluyveromyces marxianus, > 50 µg/mL; in the assay with Candida albicans, > 50 µg/mL; against Cryptococcus neoformans it was > 50 µg/mL; with Trichophyton benhamiae [2] it was 0.1 µg/mL (≈ 0.311 µM).
As for `c1ccc(CN2CCc3ccccc3C2Cn2cncn2)cc1` (stereo not drawn), the MIC is > 50 µg/mL in the assay on Aspergillus flavus [1]; > 50 µg/mL in the assay on Aspergillus fumigatus; > 50 µg/mL in the assay on Kluyveromyces marxianus; > 50 µg/mL with Candida albicans; > 50 µg/mL in the assay with Cryptococcus neoformans; 4 µg/mL (≈ 13.1 µM) against Trichophyton benhamiae [2].
For the compound `C[C@@H]1[C@H](O)[C@@H](C)/C=C/C=C/C=C/C=C/C=C/C=C/C=C/[C@H](O[C@@H]2O[C@H](C)[C@@H](O)[C@H](N)[C@@H]2O)C[C@@H]2O[C@](O)(C[C@@H](O)C[C@@H](O)[C@H](O)CC[C@@H](O)C[C@@H](O)CC(=O)O[C@H]1C)C[C@H](O)[C@H]2C(=O)O` [AMPHOTERICIN B], the MIC with Aspergillus flavus [1] was determined as 12.5 µg/mL (≈ 13.5 µM); in the assay on Aspergillus fumigatus it was 25 µg/mL (≈ 27.1 µM); against Kluyveromyces marxianus, 0.19 µg/mL (≈ 0.206 µM); in the assay with Candida albicans, 0.19 µg/mL (≈ 0.206 µM); against Cryptococcus neoformans, 0.19 µg/mL (≈ 0.206 µM); in the assay with Trichophyton benhamiae [2], 1.56 µg/mL (≈ 1.69 µM).
As for `OC(Cn1cncn1)(Cn1cncn1)c1ccc(F)cc1F` [FLUCONAZOLE], the MIC is > 50 µg/mL in the assay with Aspergillus flavus [3]; > 50 µg/mL in the assay on Aspergillus fumigatus; 0.39 µg/mL (≈ 1.27 µM) against Kluyveromyces marxianus; > 50 µg/mL in the assay with Candida albicans; 3.12 µg/mL (≈ 10.2 µM) against Cryptococcus neoformans; > 50 µg/mL in the assay on Trichophyton benhamiae [4].
As to `Clc1ccc(COC(Cn2ccnc2)c2ccc(Cl)cc2Cl)c(Cl)c1` (stereo not drawn) [MICONAZOLE], the MIC against Aspergillus flavus [3] worked out at 0.39 µg/mL (≈ 0.937 µM); in the assay on Aspergillus fumigatus, 0.39 µg/mL (≈ 0.937 µM); against Kluyveromyces marxianus it was 0.09 µg/mL (≈ 0.216 µM); in the assay with Candida albicans, 12.5 µg/mL (≈ 30 µM); with Cryptococcus neoformans, 0.19 µg/mL (≈ 0.457 µM); against Trichophyton benhamiae [4], 0.39 µg/mL (≈ 0.937 µM).
